Experimental data taken from patent US9999222B2, “Herbicidal combination comprising azines” (BASF SE, priority 2014, dated 2018).
Where two headings read alike, the source gives them in different places.

How the values were obtained:
Test in all cases: Greenhouse test, pre-emergence treatment
BRADC = assay type: in vivo, Brachiaria decumbens; conditions: Urochloa decumbens, pre-emergence, 480 h, pre-emergence, 36 g ai/ha; read-out: observed % activity 20 DAT
Method in brief: (§1)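 Seeds were sown in loamy sand with about 3.0% humus, and compounds in water were sprayed immediately after sowing, alone or as combinations formulated as 10% emulsion concentrates. Plants grew under hoods until rooted, at 10-25 °C or 20-35 °C by species, for 2 to 4 weeks. Damage was scored 0-100 (100 = no emergence or complete destruction), and Colby expected values were E=X+Y−(X·Y/100).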

SETFA = assay type: in vivo, Setaria faberi; conditions: Setaria faberi, 480 h, SETFA, individual, read-out: observed % activity 20 DAT
Method in brief: as §1

ECHCG = assay type: in vivo, Echinocloa crus-galli; conditions: Echinochloa crus-galli, 480 h, ECHCG, use rate 3.125 g ai/ha, 20 DAT, read-out: observed % activity 20 DAT
Method in brief: as §1

COMBE = assay type: in vivo, Commelina benghalensis; conditions: Commelina benghalensis, pre-emergence, 480 h
Method in brief: as §1

ELEIN = assay type: in vivo, Eleusine indica; conditions: Eleusine indica, 480 h, read-out: observed % activity 20 DAT
Method in brief: as §1

LOLMU = assay type: in vivo, Lolium multiflorum; conditions: Lolium multiflorum, pre-emergence, 480 h, LOLMU, pre-emergence, individual, use rate 6.25 g ai/ha; read-out: observed % activity 20 DAT
Method in brief: as §1

KCHSC = assay type: in vivo, Kochia scoparia
Method in brief: as §1

ALOMY = assay type: in vivo, Alopecurus myosuroides; conditions: Alopecurus myosuroides, pre-emergence, 480 h, ALOMY, pre-emergence, read-out: observed % activity 20 DAT
Method in brief: as §1

ABUTH = assay type: in vivo, Abutilon theophrasti; conditions: Abutilon theophrasti, 480 h
Method in brief: as §1

GERPU = assay type: in vivo, Geranium pusillum; conditions: Geranium pusillum, pre-emergence, 480 h, 20 DAT, read-out: observed % activity
Method in brief: as §1

EPHHL = assay type: in vivo, Euphorbia heterophylla; conditions: Euphorbia heterophylla, pre-emergence, 480 h, 20 DAT, read-out: observed % activity
Method in brief: as §1

POLCO = assay type: in vivo, Polygonum convolvulus; conditions: Fallopia convolvulus, pre-emergence, 480 h; for inhibition at 6.25 g/ha: use rate 6.25 g ai/ha
Method in brief: as §1

SIDRH = assay type: in vivo, Sida rhombifolia; conditions: Sida rhombifolia, pre-emergence, 480 h
Method in brief: as §1

GALAP = assay type: in vivo, Galium aparine; conditions: Galium aparine, pre-emergence, 480 h, pre-emergence, read-out: observed % activity 20 DAT
Method in brief: as §1

[1] = 5 g ai/ha, 20 DAT, read-out: observed % activity
[2] = 10 g ai/ha, 20 DAT, read-out: observed % activity
[3] = 10 g ai/ha, read-out: observed % activity 20 DAT

CC(C)N(C)S(=O)(=O)NC(=O)c1cc(-n2c(=O)cc(C(F)(F)F)n(C)c2=O)c(F)cc1Cl [Saflufenacil, saflufenacil]
inhibition at 36 g/ha (BRADC): 90%
inhibition at 6.25 g/ha (SETFA; use rate 6.25 g ai/ha): 0%
inhibition at 12.5 g/ha (SETFA; use rate 12.5 g ai/ha): 0%
inhibition at 3.125 g/ha (ECHCG): 0%
inhibition at 5 g/ha (COMBE; [1]): 65%
inhibition at 10 g/ha (COMBE; [2]): 98%
inhibition at 5 g/ha (COMBE; COMBE, individual, use rate 5 g ai/ha, read-out: observed % activity 20 DAT): 0%
inhibition at 10 g/ha (COMBE; COMBE, individual, use rate 10 g ai/ha, read-out: observed % activity 20 DAT): 15%
inhibition at 5 g/ha (COMBE; 5 g ai/ha, read-out: observed % activity 20 DAT): 0%
inhibition at 10 g/ha (COMBE; [3]): 15%
inhibition at 18 g/ha (ELEIN; 18 g ai/ha): 35%
inhibition at 36 g/ha (ELEIN; 36 g ai/ha): 95%
inhibition at 6.25 g/ha (LOLMU): 0%
observed % activity (KCHSC; 5 g ai/ha, 20 DAT): 85%
inhibition at 5 g/ha (KCHSC; Bassia scoparia, pre-emergence, 480 h, 5 g ai/ha, 20 DAT, read-out: observed % activity): 70%
inhibition at 5 g/ha (KCHSC; Bassia scoparia, pre-emergence, 480 h, KCHSC, pre-emergence, individual, use rate 5 g ai/ha, read-out: observed % activity 20 DAT): 70%
inhibition at 6.25 g/ha (KCHSC; Bassia scoparia, pre-emergence, 480 h, KCHSC, pre-emergence, individual, use rate 6.25 g ai/ha, read-out: observed % activity 20 DAT): 30%
inhibition at 10 g/ha (KCHSC; Bassia scoparia, pre-emergence, 480 h, KCHSC, pre-emergence, individual, use rate 10 g ai/ha, read-out: observed % activity 20 DAT): 65%
inhibition at 12.5 g/ha (KCHSC; Bassia scoparia, pre-emergence, 480 h, KCHSC, pre-emergence, individual, use rate 12.5 g ai/ha, read-out: observed % activity 20 DAT): 70%
inhibition at 5 g/ha (KCHSC; Bassia scoparia, pre-emergence, 480 h, pre-emergence, 5 g ai/ha, read-out: observed % activity 20 DAT): 70%
inhibition at 10 g/ha (KCHSC; Bassia scoparia, pre-emergence, 480 h, pre-emergence, 10 g ai/ha, read-out: observed % activity 20 DAT): 65%
inhibition at 6.25 g/ha (ALOMY; individual, use rate 6.25 g ai/ha): 0%
inhibition at 12.5 g/ha (ALOMY; individual, use rate 12.5 g ai/ha): 0%
inhibition at 3.125 g/ha (ALOMY; use rate 3.125 g ai/ha, 20 DAT): 0%
inhibition at 10 g/ha (ABUTH; [2]): 90%
inhibition at 10 g/ha (ABUTH; [3]): 25%
inhibition at 10 g/ha (ABUTH; ABUTH, individual, use rate 10 g ai/ha, read-out: observed % activity 20 DAT): 25%
inhibition at 5 g/ha (GERPU; 5 g ai/ha): 25%
inhibition at 10 g/ha (GERPU; 10 g ai/ha): 25%
inhibition at 5 g/ha (EPHHL; 5 g ai/ha): 80%
inhibition at 10 g/ha (EPHHL; 10 g ai/ha): 95%
inhibition at 5 g/ha (POLCO; [1]): 60%
inhibition at 10 g/ha (POLCO; [2]): 65%
inhibition at 6.25 g/ha (POLCO; POLCO, individual, read-out: observed % activity 20 DAT): 70%
inhibition at 10 g/ha (POLCO; POLCO, individual, use rate 10 g ai/ha, read-out: observed % activity 20 DAT): 25%
inhibition at 12.5 g/ha (POLCO; POLCO, individual, use rate 12.5 g ai/ha, read-out: observed % activity 20 DAT): 85%
inhibition at 10 g/ha (POLCO; [3]): 25%
inhibition at 6.25 g/ha (POLCO; POLCO, 20 DAT, read-out: observed % activity 20 DAT): 70%
inhibition at 5 g/ha (SIDRH; [1]): 55%
inhibition at 10 g/ha (SIDRH; [2]): 90%
inhibition at 10 g/ha (SIDRH; SIDRH, individual, use rate 10 g ai/ha, read-out: observed % activity 20 DAT): 20%
inhibition at 10 g/ha (SIDRH; [3]): 20%
inhibition at 5 g/ha (GALAP; GALAP, individual, use rate 5 g ai/ha): 25%
inhibition at 10 g/ha (GALAP; GALAP, individual, use rate 10 g ai/ha): 50%
inhibition at 5 g/ha (GALAP; 5 g ai/ha): 25%
inhibition at 10 g/ha (GALAP; 10 g ai/ha): 50%
